Results as given in the NIST ThermoML archive (doi:10.1021/acs.jced.9b00507).

Test: xn = mol fraction of the nth substance listed
Details: 100 kPa, Liquid; for mass density: Vibrating tube method; for viscosity: Concentric cylinders viscometry

CCCCCCn1cc[n+](C)c1.O=[N+]([O-])[O-] [1-hexyl-3-methylimidazolium nitrate] + CCCCCCO
Details	mass density, 308.15 K [kg/m3]	mass density, 313.15 K [kg/m3]	mass density, 318.15 K [kg/m3]	mass density, 323.15 K [kg/m3]	viscosity, 313.15 K [mPa·s]	viscosity, 318.15 K [mPa·s]	viscosity, 323.15 K [mPa·s]
x1 = 0.0816	847.7	843.9	840.1	836.2	3.92	3.2	2.63
x1 = 0.1604	882.4	878.5	874.7	870.7	5.11	3.92	3.1
x1 = 0.2391	913.8	909.9	906.1	902.2	6.87	5.06	3.84
x1 = 0.3502	953.4	949.6	945.8	942	10.64	7.53	5.55
x1 = 0.4409	982.3	978.5	974.8	971	15.42	10.79	8.02
x1 = 0.5592	1016.1	1012.3	1008.7	1005	25.7	18.71	13.49
x1 = 0.6508	1039.6	1035.8	1032.2	1028.7	40.74	29.04	21.63
x1 = 0.7395	1060.2	1056.5	1053.1	1049.5	63.17	46.03	36.13
x1 = 0.8502	1083.5	1079.9	1076.5	1073.1	107.2	78.87	63.1
x1 = 0.9391	1100.4	1096.9	1093.7	1090.4	151.34	114.4	91.12
x1 = 1	1111.1	1107.8	1104.7	1101.6	185.67	140.18	110.94
